Experimental data from the OPERA property sets (Mansouri et al. 2018).

Settings: for log10 BCF / log10 biotransformation half-life (days): fish

| Structure (SMILES) | boiling point [°C] | melting point [°C] | also measured |
| --- | --- | --- | --- |
| CCCCC(CC)(CO)CO | 262 | 43.8 | log10 vapour pressure (mmHg): -4; ready biodegradability: not readily biodegradable |
| CC(=O)CC(=O)Nc1ccc(C)cc1 | – | – | ready biodegradability: readily biodegradable |
| C[C@@H]1N[C@@H]2CCCCCCCC(=O)O[C@H]3CC[C@@H](CCCCCCCC(=O)O[C@H]1CC2)N[C@H]3C | – | 121 | – |
| C[C@]12CC[C@H](O)C=C1CC[C@@H]1[C@@H]2CC[C@]2(C)[C@@H](c3ccc(=O)oc3)CC[C@]12O | – | 235 | – |
| NC(=O)Oc1ccc(Cc2ccccc2)cc1 | – | 148 | – |
| SC1CCCC1 | 132 | – | log10 vapour pressure (mmHg): 1.06 |
| C=C[C@H](C)O | 96.5 | – | – |
| Cc1nccs1 | 128 | – | – |
| CC(C)CC(=O)C(C)C | 148 | – | – |
| NC(=O)N1c2ccccc2CC(=O)c2ccccc21 | – | 216 | – |
| Clc1ccc2ncccc2c1 | 263 | 43.8 | – |
| CC(C)(C)c1ccccc1 | 169 | -57.8 | log10 vapour pressure (mmHg): 0.343; ready biodegradability: readily biodegradable |
| CCCCCCCCCCCCCCCCCCCCCCCCCC | 412 | 56.4 | log10 biodegradation half-life (days): 2; log10 vapour pressure (mmHg): -6.33; ready biodegradability: readily biodegradable |
| O=C(O)CNC(=O)c1ccccc1O | – | 168 | – |
| c1ccc2c(c1)Nc1ccccc1O2 | – | 156 | – |
| OCCCCCO | 239 | -18 | log10 vapour pressure (mmHg): -2.41; ready biodegradability: readily biodegradable |
| N#Cc1cccc(F)c1 | 182 | -16 | – |
| CC(C)NC(C)(C)C | 98 | – | – |
| CCCCOC(=O)C1=CC(=O)CC(C)(C)O1 | 263 | – | log10 vapour pressure (mmHg): -3.52 |
| Cc1ccc(S(=O)(=O)NC(=O)NN2CCCCCC2)cc1 | – | 172 | – |
| CCc1cnc2ccccc2c1 | 266 | – | – |
| O=C(O)c1ccccc1C(=O)Nc1ccc(S(=O)(=O)Nc2nccs2)cc1 | – | 273 | – |
| C=COCC(C)C | 83 | -112 | log10 vapour pressure (mmHg): 1.77 |

| Structure (SMILES) | boiling point [°C] | melting point [°C] | also measured |
| --- | --- | --- | --- |
| COC1=C(OC)C(=O)C(C)=C(C)C1=O | – | 62.5 | – |
| CCC(Cc1ccccc1)c1ccccc1 (stereo unspecified) | 290 | – | – |
| COC(C)(C)OC | 83 | -47 | log10 vapour pressure (mmHg): 2.01 |
| Brc1cc(Br)c(Oc2c(Br)c(Br)c(Br)c(Br)c2Br)c(Br)c1 | – | – | log10 BCF: 5.75 |
| CCOC(=O)CCC(C)C | 163 | – | – |
| O=C(O)[C@@H](CO)c1ccccc1 | – | 118 | – |
| CC(=O)Nc1ccccc1F | – | 78 | – |
| NC1CCCCC1 | 134 | -17.7 | log10 Henry constant (atm·m³/mol): -5.38; log10 vapour pressure (mmHg): 1; ready biodegradability: readily biodegradable |
| CCN(CC)CCCO | 190 | – | – |
| CCCCCC | – | – | log10 Koa: 2.4; log10 biodegradation half-life (days): 0.954; log10 vapour pressure (mmHg): 2.18; ready biodegradability: readily biodegradable |
| Oc1ccc(F)c(F)c1F | – | 32 | – |
| CCCC(C)O (stereo unspecified) | 119 | -73 | log10 Henry constant (atm·m³/mol): -4.83; log10 vapour pressure (mmHg): 0.786; ready biodegradability: readily biodegradable |
| CCCCCCCCCBr | – | – | log10 vapour pressure (mmHg): -0.921 |
| CCC(=O)CCl | 138 | – | – |
| O=C1C(=O)c2ccccc2-c2ccccc21 | 360 | 209 | – |
| ClC(Cl)(Cl)Cl | 76.8 | -23 | log10 Henry constant (atm·m³/mol): -1.56; log10 Koa: 2.79; log10 Koc (L/kg): 1.85; log10 vapour pressure (mmHg): 2.06; ready biodegradability: not readily biodegradable; log10 BCF: 0.87; log10 biotransformation half-life (days): -1.19 |
| C=CC(=O)OCCCCCC | – | -45 | ready biodegradability: readily biodegradable |
| CC1(C)CC(=O)CC(C)(C)N1 | 205 | 36 | ready biodegradability: not readily biodegradable |
| CCCC(C(=O)OCC)C(=O)OCC | 221 | – | – |
| O=C(O)c1ccccc1F | – | 126 | – |
| CC(C)(N)c1ccccc1 | 196 | – | – |
| Nc1cc(Cl)c(S(N)(=O)=O)cc1S(N)(=O)=O | – | 254 | – |
| N=C(N)c1ccc(Oc2ccc(C(=N)N)cc2)cc1 | – | 216 | – |

| Structure (SMILES) | boiling point [°C] | melting point [°C] | also measured |
| --- | --- | --- | --- |
| CC(=O)C=CC1=C(C)CCCC1(C)C | – | – | log10 vapour pressure (mmHg): -1.27 |
| CC1=C(C)CCCC1 | 138 | -84.1 | – |
| Cc1cc(C)c(N)cc1C | 234 | 68 | log10 Henry constant (atm·m³/mol): -5.61; log10 vapour pressure (mmHg): -2.05 |
| CCC(=O)C(=O)O | – | 33 | – |
| CN1C2CCC1CC(OC(=O)c1ccccc1)C2 (stereo unspecified) | – | 49 | – |
| C=C(C)CCl | 71.5 | – | log10 vapour pressure (mmHg): 2.01; ready biodegradability: readily biodegradable |
| CCOC(=O)C(Cl)Cl | 155 | – | log10 vapour pressure (mmHg): 0.456 |
| COC(=O)c1ccc(O)c(N)c1 | – | 143 | – |
| CC(C)(C)C1CCC(O)CC1 (stereo unspecified) | – | 66 | log10 vapour pressure (mmHg): -1.15 |
| O=C(O)Cc1ccccc1 | 266 | 76.5 | log10 Koc (L/kg): 1.45; log10 vapour pressure (mmHg): -2.42; ready biodegradability: readily biodegradable |
| O=C(O)c1ccc(O)c(Cl)c1 | – | 171 | ready biodegradability: not readily biodegradable |
| CCCC(Cl)Cl | 114 | – | log10 vapour pressure (mmHg): 1.36 |
| COc1ccccc1N1CCN(CCCC(=O)c2ccc(F)cc2)CC1 | – | 68 | – |
| CCCCCCCCCCCCCOC(=O)CCCCC(=O)OCCCCCCCCCCCCC | – | – | log10 biotransformation half-life (days): -0.43 |
| Brc1cccc(Br)c1Br | – | 87.5 | – |
| Cc1ccc(N=Nc2ccccc2)cc1 | 312 | 71.5 | – |
| FC(F)(F)C(F)(F)C(F)(F)C(F)(F)C(F)(F)I | 94.4 | -50 | – |
| C=CCN(CC=C)c1c(C)cc(OC(=O)NC)cc1C | – | 67 | – |
| CCN(CC)c1nc(Cl)nc(NC(C)C)n1 | – | – | log10 Koc (L/kg): 2.91 |
| COC(=O)C1(S(=O)(=O)c2ccccc2)CC1 | – | 74.5 | – |
| CCc1oc2ccccc2c1C(=O)c1cc(I)c(O)c(I)c1 | – | 167 | – |
| Cc1cccc2c1cc(C)c1cccc(C)c12 | – | – | log10 biodegradation half-life (days): 1.92 |
| Nc1nc(N)nc(-c2ccccc2)n1 | – | 226 | ready biodegradability: not readily biodegradable |

| Structure (SMILES) | boiling point [°C] | melting point [°C] | also measured |
| --- | --- | --- | --- |
| Cc1cccc([N+](=O)[O-])c1C | 240 | 15 | log10 vapour pressure (mmHg): -0.445; ready biodegradability: not readily biodegradable |
| CN(C)c1ccccc1Cl | 205 | – | – |
| CC(=O)OC(OC(C)=O)c1ccccc1 | 220 | 46 | – |
| CCCCCCCCCc1cccc(O)c1CCCCCCCCC | – | – | ready biodegradability: not readily biodegradable |
| N#Cc1ccccc1N | 263 | 51 | – |
| O=P(O)(O)CN(CP(=O)(O)O)CP(=O)(O)O | 480 | – | log10 vapour pressure (mmHg): -11.2 |
| Clc1ccc(-c2c(Cl)c(Cl)cc(Cl)c2Cl)c(Cl)c1Cl | – | – | log10 biotransformation half-life (days): 2.5 |
| CCNc1nc(NC(C)(C)C)nc(SC)n1 | – | 104 | log10 Koc (L/kg): 2.85; log10 vapour pressure (mmHg): -5.77; ready biodegradability: not readily biodegradable |
| Cc1ccccc1Cc1ccccc1 | 280 | 6.6 | – |
| CC(C)CCOCCC(C)C | 172 | – | log10 vapour pressure (mmHg): 0.146; ready biodegradability: not readily biodegradable; log10 BCF: 2.23; log10 biotransformation half-life (days): -0.45 |
| Cc1ccc(Cl)c(Cl)c1Cl | 244 | 43.5 | – |
| CC(C)COCC(C)C | 123 | – | log10 Koa: 3.4; log10 vapour pressure (mmHg): 1.19 |
| COCCOC(C)=O | 143 | -70 | log10 vapour pressure (mmHg): 0.301; ready biodegradability: readily biodegradable |
| Clc1ccc(Oc2c(Cl)cc(Cl)cc2Cl)c(Cl)c1 | – | – | log10 biotransformation half-life (days): 1.69 |
| CC(C)(C)C(=O)C=Cc1ccccc1 | – | 43 | – |
| OCC(O)CN1CCN(c2ccccc2)CC1 (stereo unspecified) | – | 105 | – |
| CCOP(=S)(NC(C)CC)Oc1cc(C)ccc1[N+](=O)[O-] (stereo unspecified) | – | – | log10 BCF: 2.46; log10 biotransformation half-life (days): -0.2 |
| CC(C)OC(=O)COc1ccc(Cl)cc1Cl | – | 5 | log10 vapour pressure (mmHg): -3.63 |
| O=C1c2ccccc2-c2ccccc21 | 342 | 84 | – |
| Clc1ccc2cccc(Cl)c2c1 | 286 | 63.5 | – |
| O=S(Cc1ccccc1)Cc1ccccc1 | – | 134 | – |
| CC(=O)c1ccc(Cl)c(Cl)c1 | – | 76 | – |
